{"source": "patent US10906929B2", "about": "“Phosphoramidate nucleoside derivatives as anticancer agents” (NuCana plc, priority 2016, dated 2021)", "key": {"[1]": {"system": "HEL92.1.7 Erythroleukaemia", "experiment": "In vitro viability assay, CellTiterGlo", "format": "cell-based", "conditions": "HEL92.1.7, CellTiterGlo, 72 h", "procedure": "(§1) In vitro viability assay was performed to assess the effects of compounds on cell viability in selected cell lines over 72 h using the CellTiterGlo (CTG, Promega-G7573) assay. The tests were performed in duplicates with treatment of compounds at 9 points, 3.16 folds titration in 96 well plates over ˜72 h. The compound starting concentrations were […]. Cell viability assay using CellTiterGlo in 96-well plate were performed. Compounds were dissolved to 40 mM with thawed 100% DMSO. Compounds were serially diluted at 3.16-fold in thawed DMSO, and warmed to 37° C. before being dissolved in media (2 μl+200 μl). After compounds were dissolved in media, media containing compounds were warmed to 37° C. in incubator and then compounds in media were added to cell plates (50 μl+50 μl) in duplicates. The compounds' final concentrations were from 198 μM to 19.9 nM. Solubility of all compounds was checked and recorded again, then the plates were transferred to CO2 tissue culture incubator immediately and incubated for 3 days. DMSO final concentration is 0.5%."}, "[2]": {"system": "HL-60 Promyelocytic leukaemia", "experiment": "In vitro viability assay, CellTiterGlo", "format": "cell-based", "conditions": "HL-60, CellTiterGlo, 72 h", "procedure": "as §1"}, "[3]": {"system": "KG-1 Acute myelogenous leukaemia", "experiment": "In vitro viability assay, CellTiterGlo", "format": "cell-based", "conditions": "KG-1, CellTiterGlo, 72 h", "procedure": "as §1"}, "[4]": {"system": "RL Non-Hodgkin's lymphoma", "experiment": "In vitro viability assay, CellTiterGlo", "format": "cell-based", "conditions": "CellTiterGlo, 72 h", "procedure": "as §1"}, "[5]": {"system": "Z-138 Mantle cell lymphoma", "experiment": "In vitro viability assay, CellTiterGlo", "format": "cell-based", "conditions": "Z-138, CellTiterGlo, 72 h", "procedure": "as §1"}, "[6]": {"system": "MCF-7 Mammary epithelial adenocarcinoma", "experiment": "In vitro viability assay, CellTiterGlo", "format": "cell-based, human", "conditions": "MCF-7, CellTiterGlo, 72 h", "procedure": "as §1"}, "[7]": {"system": "leukaemic stem cell compartment (Lin-/CD34+/CD38-/CD123+) within the KG1a cell line", "experiment": "Immunophenotypic identification of the leukaemic stem cell compartment", "format": "cell-based", "conditions": "72 h, LSC phenotype as percentage of all viable cells left, Control: 4%", "procedure": "A further comparative analysis of the toxicity of compounds in the KG1a cell line over an extended dose range was carried out, and the relative effect assessed of the compounds on the leukaemic stem cell compartment within the KG1a cell line, across the entire dose range. Thus, experimental tests were performed on certain compounds of the present invention to assess their ability to target cancer stem cells in a leukaemic cell line. The acute myeloid leukaemia (AML) cell line, KG1a, was employed to assess the relative effect of compounds on the stem cell compartment. The KG1a cell line was selected because it manifests a minor stem cell-like compartment with a distinct immunophenotype (Lin^−/CD34^+/CD38^−/CD123^+).\nCells of the KG1a cell line were maintained in RPMI medium (Invitrogen, Paisley, UK) supplemented with 100 units/ml penicillin, 100 μg/ml streptomycin and 20% foetal calf serum. Cells were subsequently aliquoted (10^5 cells/100 μl) into 96-well plates and were incubated at 37° C. in a humidified 5% carbon dioxide atmosphere for 72 h in the presence of nucleoside analogues and their respective phosphoramidates at concentrations that were experimentally determined for each series of compounds. In addition, control cultures were carried out to which no drug was added. Cells were subsequently harvested by centrifugation and were analyzed by flow cytometry using the Annexin V assay.\nKG1a cells were cultured for 72 h in the presence of a wide range of concentrations of each compound assayed. Cells were then harvested and labelled with a cocktail of anti-lineage antibodies (PE-cy7), anti-CD34 (FITC), anti-CD38 (PE) and anti-CD123 (PERCP cy5). The sub-population expressing a leukaemic stem cell (LSC) phenotype were subsequently identified and were expressed as a percentage of all viable cells left in the culture. […]"}, "[8]": {"system": "MCF7 cells infected with Mycoplasma hyorhnis (HYOR)", "experiment": "Cytostatic activity in mycoplasma-infected cells", "format": "cell-based, human", "excerpt": "(§2) Tumor cell cultures were infected with M. hyorhinis (ATCC 17981) and after two or more passages (to avoid bias by the initial inoculum) successful infection was confirmed using the MycoAlert™ mycoplasma detection kit (Lonza, Basel, Switzerland). Although this assay is only semi-quantitative, a maximal infection was observed 3 to 4 days after subcultivation of the mycoplasma-exposed cells. Chronically infected tumor cell lines are further referred to as Cell line.Hyor. All tumor cell cultures were maintained in Dulbecco's modified Eagle's medium (DMEM) (Invitrogen) supplemented with 10% fetal bovine serum (Biochrom AG, Berlin, Germany), 10 mm HEPES, and 1 mm sodium pyruvate (Invitrogen). Cells were grown at 37° C. in a humidified incubator with a gas phase containing 5% CO2.\n(§3) The cytostatic activity of the test compounds was examined in mycoplasma-infected and uninfected cancer cell lines. When assaying the effect of M. hyorhinis infection, monolayer MCF7 and MCF7.Hyor cells were seeded in 48-well microtiter plates (Nunc™, Roskilde, Denmark) at 10,000 cells/well (Corning Inc., Corning, N.Y.) […]. After 24 h, the cells were exposed to different concentrations of test compound and allowed to proliferate for 72 h (to ensure sufficient cell proliferation and mycoplasma growth) after which the cells were trypsinized and counted using a Coulter counter (Analis, Suarlée, Belgium). Suspension cells (L1210, L1210.Hyor, FM3A, and FM3A.Hyor) were seeded in 96-well microtiter plates (Nunc) at 60,000 cells/well in the presence of different concentrations of test compound. The cells were allowed to proliferate for 48 h and then counted using a Coulter counter. The 50% inhibitory concentration (IC50) was defined as the compound concentration required to reduce cell proliferation by 50%."}, "[9]": {"system": "L1210 cells infected with Mycoplasma hyorhinis (HYOR)", "experiment": "Cytostatic activity in mycoplasma-infected cells", "format": "cell-based, mouse", "excerpt": "as §2, §3"}, "[10]": {"conditions": "Homo sapiens, read-out: EC50 (μM) Ab"}}}
{"compound": "Nc1nc(Cl)nc2c1ncn2[C@H]1C[C@H](O)[C@@H](CO)O1", "note": "[Cladribine, cladribine, reference compound]", "values": [{"measurement": "Top Inhibition (%)", "setting": "[1]", "result": 97.4, "unit": "%"}, {"measurement": "EC50", "setting": "[1]; Homo sapiens, HEL 92.1.7, read-out: EC50 (μM) Ab", "result": "< 0.019", "unit": "µM"}, {"measurement": "Top Inhibition (%)", "setting": "[2]", "result": 85, "unit": "%"}, {"measurement": "EC50", "setting": "[2]; [10]", "result": "< 0.019", "unit": "µM"}, {"measurement": "EC50", "setting": "[3]; [10]", "result": 0.17, "unit": "µM"}, {"measurement": "Top Inhibition (%)", "setting": "[3]", "result": 93.5, "unit": "%"}, {"measurement": "Top Inhibition (%)", "setting": "[4]", "result": 94.7, "unit": "%"}, {"measurement": "EC50", "setting": "[4]; [10]", "result": "< 0.019", "unit": "µM"}, {"measurement": "EC50", "setting": "[5]; [10]", "result": "< 0.019", "unit": "µM"}, {"measurement": "Top Inhibition (%)", "setting": "[5]", "result": 99.7, "unit": "%"}, {"measurement": "EC50", "setting": "[6]; Homo sapiens, MCF7, read-out: EC50 (μM) Ab", "result": "> 198", "unit": "µM"}, {"measurement": "Top Inhibition (%)", "setting": "[6]", "result": 36.3, "unit": "%"}, {"measurement": "Stem cell %", "setting": "[7]", "result": 6, "unit": "%"}, {"measurement": "IC50", "setting": "[8]; Homo sapiens, MCF7, 72 h, read-out: IC50 MCF7/HYOR", "result": 9.3, "unit": "µM"}, {"measurement": "Loss of potency", "setting": "[8]; MCF7/HYOR versus MCF7", "result": "25-fold"}, {"measurement": "Loss of potency", "setting": "[9]; L1210/HYOR versus L1210", "result": "8-fold"}, {"measurement": "IC50", "setting": "[9]; Mus musculus, L1210, 48 h, read-out: IC50 L1210/HYOR", "result": 3000, "unit": "nM"}]}
